Entries after “also recorded” stand apart in the source; their conditions may differ. Like-named read-outs stand apart in the source and are kept apart here.
What was measured:
[1] = tested on: RKO WT cells; experiment: cells; type: cell-based, human
Protocol: (§1) RKO WT, VHL KO, CRBN KO and CRBN/VHL dKO cells were cultured in Dulbecco’s modified Eagle’s medium supplemented with 10% FCS and 1% penicillin–streptomycin. RKO CRBN KO and VHL KO were generated previously.[45] RKO CRBN/VHL dKO cells were generated by transiently expressing pSpCas9(BB)-2A-GFP (PX458) (Addgene 48138) loaded with a short guide RNA (sgRNA) targeting VHL (Fwd: […], Rev: […]) in RKO CRBN KO cells. Clones were single cell seeded and checked for VHL and CRBN double deletion via Western blot or PCR on genomic DNA (gDNA).
Cells were seeded in 96-well plates at a cell density of 3750 cells per well and treated for 3 days with DMSO or drug at ten √10 serial diluted concentrations. […] Cell viability was assessed using the CellTiter-Glo assay (CellTiter-Glo Luminescent Cell Viability Assay, Promega G7573) according to manufacturer instructions. Luminescence signal was measured on a Multilabel Plate Reader Platform Victor X3 model 2030 (PerkinElmer). Survival curves and EC50 values were determined using GraphPad Prism v.10.0.3 by fitting a nonlinear regression to the log10-transformed drug concentration and the relative viability after normalization of each data point to the mean luminescence of the lowest drug concentration.

[2] = tested on: K562 cells; experiment: Cell viability assay (CellTiter-Glo); type: cell-based, human; settings: Homo sapiens; WT K562, 5.12 pM to 10 uM, n = 3 (Table S4)
Protocol: (§2) Cells were seeded in 96-well plates at a cell density of […], and each treatment was performed in biological triplicates. Cell viability was assessed using the CellTiter-Glo assay (CellTiter-Glo Luminescent Cell Viability Assay, Promega G7573) according to manufacturer instructions. Luminescence signal was measured on a Multilabel Plate Reader Platform Victor X3 model 2030 (PerkinElmer). Survival curves and EC50 values were determined using GraphPad Prism v.10.0.3 by fitting a nonlinear regression to the log10-transformed drug concentration and the relative viability after normalization of each data point to the mean luminescence of the lowest drug concentration.

[3] = tested on: KBM7 cells; experiment: Cell viability assay (CellTiter-Glo); type: cell-based, human; settings: Homo sapiens, KBM-7; WT KBM7, 5.12 pM to 10 uM, n = 3 (Table S4)
Protocol: as §2

[4] = tested on: RKO VHL KO cells; experiment: Cell viability assay (CellTiter-Glo); type: cell-based, human
Protocol: as §1
(§3) Cells were seeded in 96-well plates at a cell density of 3750 cells per well and treated for 3 days with DMSO or drug at ten √10 serial diluted concentrations. Starting concentration for all drugs was 10 μM, and each treatment was performed in biological triplicates. Cell viability was assessed using the CellTiter-Glo assay (CellTiter-Glo Luminescent Cell Viability Assay, Promega G7573) according to manufacturer instructions. Luminescence signal was measured on a Multilabel Plate Reader Platform Victor X3 model 2030 (PerkinElmer). Survival curves and EC50 values were determined using GraphPad Prism v.10.0.3 by fitting a nonlinear regression to the log10-transformed drug concentration and the relative viability after normalization of each data point to the mean luminescence of the lowest drug concentration.

[5] = tested on: RKO CRBN KO cells; experiment: Cell viability assay (CellTiter-Glo); type: cell-based, human; settings: Homo sapiens, 72 h, 316 pM to 10 μM, 3 days, n = 6 (Figure 3C, Table S1)
Protocol: as §1, §3

[6] = tested on: RKO CRBN/VHL dKO cells; experiment: Cell viability assay (CellTiter-Glo); type: cell-based, human
Protocol: as §1, §3

[7] = tested on: RKO CRBN KO cells; experiment: Cell viability assay (CellTiter-Glo); type: cell-based, human; settings: 500 pM to 10 μM, 3 days (Figure 10, Table S6)
[8] = target: BRD4 (Homo sapiens, UniProt O60885); experiment: Live cell kinetic HiBiT degradation assay, HiBiT-BRD4 HEK293 cells (parental, CRBN KO, VHL KO); type: cell-based; settings: parental, CRBN KO and VHL KO HiBiT-BRD4 HEK293 cells (Figure S5); listed as 93
Protocol: HEK293 HiBiT-BRD2 (LgBiT stable), HEK293 HiBiT-BRD3 (LgBiT stable), and HEK293 HiBiT-BRD4 (LgBiT stable) were created using CRISPR/Cas9 to insert at HiBiT tag at the N-terminal genomic loci of BRD2, BRD3, or BRD4 in a cell line stably expressing LgBiT protein as described previously.[23]
For kinetic degradation experiments, HEK293 HiBiT-BRD2, 3, or 4 (LgBiT stable) cells and HEK293 HiBiT-BRD4 (LgBiT) CRBN KO and VHL KO cells were plated at 20,000 cells/well in DMEM +10% FBS in white 96-well tissue culture plates and allowed to adhere overnight. The next day, media was removed and 90 μL of prewarmed CO2-independent medium (Gibco) containing Endurazine (Promega) at a 1:100 dilution from stock was added. Plates were incubated at 37 °C for 3 h to allow luminescence to equilibrate. A threefold dilution series of each PROTAC at 10x the desired final concentration was prepared (with the amount of DMSO in each treatment condition kept constant). After luminescence equilibration, a preread luminescence measurement was taken (prior to compound addition) to allow for baseline normalization to account for possible plating differences. Cells were then treated with 10 μL of the prepared PROTAC dilution series (in triplicate or quadruplicate). Treated plates were placed in a GloMax Discover luminometer (Promega) prewarmed to 37 °C and luminescence measurements were obtained every 7 min for 24 h. Kinetic degradation plots were obtained by first normalizing time course luminescence readings in each well to the preread measurement, then to the average value of the DMSO only control at each time point. Data was analyzed using GraphPad Prism (version 8) and excel. Dmax values were identified as the lowest luminescence reading in each well. Rate constant values were calculated using a one phase exponential decay Y = (Y0-Plateau) e(K*^X) + Plateau using Prism (Y0 constrained to 1). Dmax 50 values were calculated by plotting Dmax as a function of concentration, then fitting plots using the following equation: [drawing 1] to determine IC50.
HiBiT-BRD4 (LgBiT stable) HEK293 cells (Promega) were used to generate both VHL KO HiBiT-BRD4 (LgBiT stable) and CRBN KO HiBiT-BRD4 (LgBiT stable) cell lines. For VHL, gRNAs targeting exon 1 ([…]) and exon 2 ([…]) and for CRBN, gRNAs targeting exon 3 ([…]) and exon 6 ([…]) were purchased from IDT DNA (Table 5). For each gRNA, tracrRNA/crRNA duplexes were formed by combining 10 μL of 100 μM Alt-R […] (IDT), 100 μM Alt-R crRNA (IDT) and heating at 95C for 5 min, then were allowed to cool to room temp for 20 min. RNPs were then formed by combining 75 pmol Cas9 (IDT) with 2.4 μL total of prepared tracrRNA/crRNA complex (1.2 μL for each gRNA targeting each exon). Cells were then trypsinized and resuspended at 10,000,000 cells/mL in 1 mL of Mirus Ingenio electroporation solution. Three μL of 100 μM electroporation enhancer (Mirus) was added, along with 3 μL of RNP solution. Cells were electroporated in 2 mm cuvettes using a BioRad system (190 V, 950 μF, infinite resistance) and were then plated in a T75 flask in full growth medium to allow for recovery. After recovery from electroporation, knockout pools were sorted for single cells in 96-well tissue culture treated plates. Clonal populations which expanded from single cells were then screened for loss of function of VHL by treating with MZ1, or loss of function of CRBN by treating with dBET6, using a HiBiT-BRD4 luminescent readout assay. Genomic DNA isolated from candidate clones was then PCR-amplified (Table of primers below), Gibson-assembled into a pF1A plasmid backbone, transformed into E. coli., and then Sanger sequenced to confirm presence of indels in the targeted exons. […] VHL exon 3 carried a 19 bp deletion on one allele, and a 1 bp insertion on the other allele, both occurring after the premature stop codon in exon 1.

[9] = Homo sapiens, 72 h, 500 pM to 10 μM, 3 days (Figure 10, Table S6), read-out: EC50 RKO WT

| EC50 ([1]; Homo sapiens, 72 h, 316 pM to 10 μM, 3 days, n = 6 (Figure 3C, Table S1), read-out: EC50 RKO WT) [nM] | EC50 [1, 9] [nM] | EC50 ([1]; Homo sapiens, RKO WT, 316 pM to 10 μM, n = 6, combination: dBET6 and MZ1 each from 5 μM (Table S7), read-out: EC50 RKO) [nM] | EC50 ([1]; Homo sapiens, WT RKO, 316 pM to 10 μM, n = 3 (Table S4), read-out: EC50 RKO) [nM] | EC50 [2] [nM] | EC50 ([1]; 500 pM to 10 μM, 3 days (Figure 10, Table S6), listed as 93, read-out: EC50 RKO WT) [nM] | SMILES | EC50 [3] [nM] | EC50 ([4]; Homo sapiens, 72 h, 316 pM to 10 μM, 3 days, n = 6 (Figure 3C, Table S1)) [nM] | EC50 ([4]; Homo sapiens, Figure 10 experiment) [nM] | EC50 [5] [nM] | EC50 ([6]; Homo sapiens, Figure 10 experiment, read-out: EC50 RKO VHL/CRBN dKO) [nM] | EC50 ([6]; Homo sapiens, both VHL and CRBN knocked out (Figure 3C), read-out: EC50 RKO CRBN/VHL dKO) [nM] | EC50 ([7]; Homo sapiens, 72 h) [nM] | on-target BRD4 degradation activity (in words) [8] | EC50 ([4]; 500 pM to 10 μM, 3 days (Figure 10, Table S6)) [nM] | EC50 ([4]; Homo sapiens, 72 h, 500 pM to 10 μM, 3 days (Figure 10, Table S6)) [nM] | EC50 ([6]; 500 pM to 10 μM, 3 days (Figure 10, Table S6), read-out: EC50 RKO CRBN/VHL dKO) [nM] | EC50 ([6]; Homo sapiens, 72 h, 500 pM to 10 μM, 3 days (Figure 10, Table S6), read-out: EC50 RKO CRBN/VHL dKO) [nM] | EC50 ([7]; listed as 93) [nM] |
| --- | --- | --- | --- | --- | --- | --- | --- | --- | --- | --- | --- | --- | --- | --- | --- | --- | --- | --- | --- |
| 212 | 160 | 152 | 188 | 216 |  | Cc1ncsc1-c1ccc(CNC(=O)[C@@H]2C[C@@H](O)CN2C(=O)[C@@H](NC(=O)COCCOCCOCCNC(=O)C[C@@H]2N=C(c3ccc(Cl)cc3)c3c(sc(C)c3C)-n3c(C)nnc32)C(C)(C)C)cc1 [MZ1, reference compound] | 66.2 | > 10000 | > 5000 | 181 | > 5000 | > 10000 | 136 |  |  |  |  |  |  |
|  | ~106 |  |  |  | 107 | Cc1ncsc1-c1ccc([C@H](C)NC(=O)[C@@H]2C[C@@H](O)CN2C(=O)[C@@H](NC(=O)COCC(C)(COCCOCCOCCNc2cc3c(cc2F)C(=O)N(C2CCC(=O)N(C)C2=O)C3=O)COCCOCCOCCOC(=O)C[C@@H]2N=C(c3ccc(Cl)cc3)c3c(sc(C)c3C)-n3c(C)nnc32)C(C)(C)C)cc1 (mixture of isomers) [neg-AB3067 (93), (17S)-11-((2-(2-(2-((6-fluoro-2-(1-methyl-2,6-dioxopiperidin-3-yl)-1,3-dioxoisoindolin-5-yl)amino)ethoxy)ethoxy)ethoxy)methyl)-17-((2S,4R)-4-hydroxy-2-(((S)-1-(4-(4-methylthiazol-5-yl)phenyl)ethyl)carbamoyl)pyrrolidine-1-carbonyl)-11,18,18-trimethyl-15-oxo-3,6,9,13-tetraoxa-16-azanonadecyl 2-((S)-4-(4-chlorophenyl)-2,3,9-trimethyl-6H-thieno[3,2-f][1,2,4]triazolo[4,3-a][1,4]diazepin-6-yl)acetate] |  |  |  |  |  |  | ~106 | inactive in VHL KO cells; also recorded: decreased relative to 27 in parental and CRBN KO cells | ~400 | 391 | ~400 | 420 | 105 |

Reference: publication PMC11638965, “Leveraging Dual-Ligase Recruitment to Enhance Protein Degradation via a Heterotrivalent Proteolysis Targeting Chimera” (Journal of the American Chemical Society, 2024)
